Source: PubChem BioAssay AID248 (DTP/NCI, 2004)
“And” between values parts separate entries of the source, which are not always exact repeats. Equal values may be shown once. Inconclusive results and toxic doses are left out. Cut-off read from the data, not from the text of the source: active = T/C of 150% or more; inactive = T/C below 125%.

Test system: L1210 leukemia ip in BDF1 mice, survival T/C
Experiment: NCI In Vivo Anticancer Drug Screen. Data for tumor model L1210 Leukemia (intraperitoneal) in B6D2F1 (BDF1) mice
Details: endpoint: mean survival time, higher = longer survival
Procedure, shortened: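 Transplanted-tumor mice were given test agent; controls received vehicle only. Survival readings from the two groups were divided (treated over control).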

[1] = dose: 100.0 mg/kg/injection, schedule: Q01DX001 (ip), vehicle: saline
[2] = dose: 100.0 mg/kg/injection, schedule: Q01DX009 (ip), vehicle: saline
[3] = dose: 200.0 mg/kg/injection, schedule: Q01DX001 (ip), vehicle: saline
[4] = dose: 200.0 mg/kg/injection, schedule: Q01DX009 (ip), vehicle: saline
[5] = dose: 400.0 mg/kg/injection, schedule: Q01DX001 (ip), vehicle: saline
[6] = dose: 12.5 mg/kg/injection, schedule: Q01DX009 (ip), vehicle: Klucel (hydroxypropylcellulose) (HPC)
[7] = dose: 25.0 mg/kg/injection, schedule: Q01DX009 (ip), vehicle: Klucel (hydroxypropylcellulose) (HPC)
[8] = dose: 50.0 mg/kg/injection, schedule: Q01DX009 (ip), vehicle: Klucel (hydroxypropylcellulose) (HPC)
[9] = dose: 100.0 mg/kg/injection, schedule: Q01DX009 (ip), vehicle: saline with Tween-80
[10] = dose: 100.0 mg/kg/injection, schedule: Q04DX002 (ip), vehicle: saline
[11] = dose: 200.0 mg/kg/injection, schedule: Q04DX002 (ip), vehicle: saline

Measured: T/C

CCN(CC)C(=O)C1C2CCC(C2)C1C(=O)N(CC)CC (stereo not drawn)
inactive: dose: 100.0 mg/kg/injection, schedule: Q04DX003 (ip), vehicle: saline 100 % of control | dose: 200.0 mg/kg/injection, schedule: Q04DX003 (ip), vehicle: saline 100 % of control | dose: 400.0 mg/kg/injection, schedule: Q04DX003 (ip), vehicle: saline 100 % of control

NC(CC(=O)O)C(=O)O (stereo not drawn)
inactive: dose: 100.0 mg/kg/injection, schedule: Q01DX001 (ip), vehicle: carboxymethylcellulose (CMC) 94 % of control | [1] 102 % of control and 95 % of control | [2] 97 % of control | dose: 100.0 mg/kg/injection, schedule: Q04DX002 (ip), vehicle: Klucel (hydroxypropylcellulose) (HPC) 98 % of control | dose: 200.0 mg/kg/injection, schedule: Q01DX001 (ip), vehicle: carboxymethylcellulose (CMC) 89 % of control | [3] 96 % of control and 93 % of control | [4] 100 % of control | dose: 200.0 mg/kg/injection, schedule: Q04DX002 (ip), vehicle: Klucel (hydroxypropylcellulose) (HPC) 98 % of control | dose: 400.0 mg/kg/injection, schedule: Q01DX001 (ip), vehicle: carboxymethylcellulose (CMC) 92 % of control | [5] 102 % of control and 90 % of control | dose: 400.0 mg/kg/injection, schedule: Q01DX009 (ip), vehicle: saline 97 % of control | dose: 400.0 mg/kg/injection, schedule: Q01DX030 (sc), vehicle: other 97 % of control | dose: 400.0 mg/kg/injection, schedule: Q04DX002 (ip), vehicle: Klucel (hydroxypropylcellulose) (HPC) 95 % of control | dose: 800.0 mg/kg/injection, schedule: Q01DX030 (sc), vehicle: other 96 % of control

CCSC1=C(N2CC2)C(=O)C(SCC)=C(N2CC2)C1=O
inactive: dose: 150.0 mg/kg/injection, schedule: Q04DX003 (ip), vehicle: saline 96 % of control | dose: 225.0 mg/kg/injection, schedule: Q04DX003 (ip), vehicle: saline 96 % of control

Nc1ccnc(SCCCCc2ccccc2)n1
inactive: dose: 100.0 mg/kg/injection, schedule: Q04DX003 (ip), vehicle: gum acacia 90 % of control | dose: 200.0 mg/kg/injection, schedule: Q04DX003 (ip), vehicle: gum acacia 93 % of control | dose: 400.0 mg/kg/injection, schedule: Q04DX003 (ip), vehicle: gum acacia 90 % of control

Fc1c(Cl)c(Cl)c(Cl)c(Cl)c1Cl
inactive: dose: 100.0 mg/kg/injection, schedule: Q01DX009 (ip), vehicle: saline sonified 110 % of control | dose: 100.0 mg/kg/injection, schedule: Q04DX003 (ip), vehicle: Klucel (hydroxypropylcellulose) (HPC) 96 % of control | dose: 200.0 mg/kg/injection, schedule: Q01DX009 (ip), vehicle: saline sonified 100 % of control | dose: 200.0 mg/kg/injection, schedule: Q04DX003 (ip), vehicle: Klucel (hydroxypropylcellulose) (HPC) 97 % of control | dose: 400.0 mg/kg/injection, schedule: Q01DX009 (ip), vehicle: saline sonified 95 % of control | dose: 400.0 mg/kg/injection, schedule: Q04DX003 (ip), vehicle: Klucel (hydroxypropylcellulose) (HPC) 96 % of control

C1OCOCO1
inactive: dose: 25.0 mg/kg/injection, schedule: Q01DX009 (ip), vehicle: saline 92 % of control | dose: 50.0 mg/kg/injection, schedule: Q01DX009 (ip), vehicle: saline 97 % of control | [2] 95 % of control | [4] 97 % of control

CC/C=C(\C)C1(CC)C(=O)N=C(N)NC1=O (stereo not drawn)
inactive: dose: 150.0 mg/kg/injection, schedule: Q01DX001 (ip), vehicle: saline 105 % of control

O=[N+]([O-])c1ccc(S(=O)(=O)n2cccc2)cc1
inactive: dose: 50.0 mg/kg/injection, schedule: Q01DX001 (ip), vehicle: saline 98 % of control | [1] 95 % of control | [3] 95 % of control | [5] 98 % of control

Cc1cc(=O)oc2c(OS(C)(=O)=O)c(OS(C)(=O)=O)ccc12
inactive: dose: 6.25 mg/kg/injection, schedule: Q01DX009 (ip), vehicle: Klucel (hydroxypropylcellulose) (HPC) 100 % of control | [6] 100 % of control | [7] 96 % of control and 100 % of control | [8] 94 % of control and 88 % of control | dose: 100.0 mg/kg/injection, schedule: Q01DX009 (ip), vehicle: Klucel (hydroxypropylcellulose) (HPC) 97 % of control | dose: 200.0 mg/kg/injection, schedule: Q01DX009 (ip), vehicle: Klucel (hydroxypropylcellulose) (HPC) 105 % of control

O=C(Oc1ccc(Br)cc1)c1cc([N+](=O)[O-])ccc1O
inactive: [1] 98 % of control | [3] 104 % of control | [5] 103 % of control

CC(C)(C)c1ccc(SC(=O)Nc2cc([N+](=O)[O-])ccc2Cl)cc1
inactive: dose: 25.0 mg/kg/injection, schedule: Q01DX009 (ip), vehicle: saline with Tween-80 90 % of control | dose: 50.0 mg/kg/injection, schedule: Q01DX009 (ip), vehicle: saline with Tween-80 101 % of control | [9] 100 % of control and 92 % of control

O=C1c2cccc([N+](=O)[O-])c2C(=O)C1c1ccccn1 (stereo not drawn)
inactive: dose: 100.0 mg/kg/injection, schedule: Q04DX003 (ip), vehicle: saline with Tween-80 101 % of control | dose: 200.0 mg/kg/injection, schedule: Q04DX003 (ip), vehicle: saline with Tween-80 90 % of control | dose: 400.0 mg/kg/injection, schedule: Q04DX003 (ip), vehicle: saline with Tween-80 101 % of control

C=C1CC(OC(C)=O)C2C(C)C(=O)OC2C2C1CC1OC12C (stereo not drawn)
inactive: [10] 92 % of control | [11] 92 % of control

CC(CCN)(CCN)[N+](=O)[O-]
inactive: [1] 98 % of control | [3] 92 % of control | [5] 93 % of control

CCCCCCCCCCC(=O)N(CCC)CCC
inactive: dose: 100.0 mg/kg/injection, schedule: Q01DX009 (ip), vehicle: carboxymethylcellulose (CMC) 97 % of control | dose: 100.0 mg/kg/injection, schedule: Q04DX002 (ip), vehicle: carboxymethylcellulose (CMC) 91 % of control | dose: 200.0 mg/kg/injection, schedule: Q01DX009 (ip), vehicle: carboxymethylcellulose (CMC) 93 % of control and 92 % of control | dose: 200.0 mg/kg/injection, schedule: Q04DX002 (ip), vehicle: carboxymethylcellulose (CMC) 93 % of control | dose: 400.0 mg/kg/injection, schedule: Q01DX009 (ip), vehicle: carboxymethylcellulose (CMC) 86 % of control | dose: 400.0 mg/kg/injection, schedule: Q04DX002 (ip), vehicle: carboxymethylcellulose (CMC) 88 % of control

COc1ccc([N+](=O)[O-])cc1NC(=O)CCCCCCCCC(=O)Nc1cc([N+](=O)[O-])ccc1OC
inactive: [10] 102 % of control | [11] 102 % of control | dose: 400.0 mg/kg/injection, schedule: Q04DX002 (ip), vehicle: saline 109 % of control

CC1(C)OC(=O)C(C#N)C1c1ccc(Cl)cc1 (stereo not drawn)
inactive: [1] 101 % of control | [3] 95 % of control | [5] 95 % of control

CC1CCc2cc3c(cc2C1)S(=O)(=O)c1ccccc1-3 (stereo not drawn)
inactive: [1] 96 % of control | [3] 86 % of control | [5] 86 % of control

O=NN1CCCNCC1
inactive: dose: 25.0 mg/kg/injection, schedule: Q01DX009 (ip), vehicle: water 104 % of control | dose: 50.0 mg/kg/injection, schedule: Q01DX009 (ip), vehicle: water 111 % of control | dose: 100.0 mg/kg/injection, schedule: Q01DX009 (ip), vehicle: water 106 % of control | dose: 200.0 mg/kg/injection, schedule: Q01DX009 (ip), vehicle: water 101 % of control | dose: 400.0 mg/kg/injection, schedule: Q01DX009 (ip), vehicle: water 112 % of control

O=C(NCCCl)NC(C1CC1)C1CC1
inactive: [9] 94 % of control | dose: 200.0 mg/kg/injection, schedule: Q01DX009 (ip), vehicle: saline with Tween-80 94 % of control

CCOC(O)C(F)(F)F (stereo not drawn)
inactive: dose: 50.0 mg/kg/injection, schedule: Q01DX015 (ip), vehicle: saline 93 % of control | [1] 98 % of control | dose: 100.0 mg/kg/injection, schedule: Q01DX009 (ip), vehicle: acetone 103 % of control | dose: 100.0 mg/kg/injection, schedule: Q01DX015 (ip), vehicle: saline 96 % of control | [3] 112 % of control | dose: 200.0 mg/kg/injection, schedule: Q01DX009 (ip), vehicle: acetone 102 % of control | dose: 200.0 mg/kg/injection, schedule: Q01DX015 (ip), vehicle: saline 88 % of control | [5] 102 % of control

NS(=O)(=O)c1ccc(N=Nc2ncc(CCNC3=CC(=O)C(=O)c4ccccc43)[nH]2)cc1
inactive: [6] 93 % of control | [7] 96 % of control | [8] 96 % of control and 92 % of control

CCN(C(=O)c1ccccc1Cl)C(c1ccco1)P(=O)(c1ccccc1)c1ccccc1 (stereo not drawn)
inactive: dose: 100.0 mg/kg/injection, schedule: Q04DX002 (ip), vehicle: saline with Tween-80 93 % of control | dose: 200.0 mg/kg/injection, schedule: Q04DX002 (ip), vehicle: saline with Tween-80 86 % of control | dose: 400.0 mg/kg/injection, schedule: Q04DX002 (ip), vehicle: saline with Tween-80 117 % of control
